This is an account of results in the supplement of paper PMC10949913.

What all share (details): 48 h
For experiment [1], the system named is CU-ACC2. Briefly: AC50 viability; higher = less potent. The method, boiled down:
(§1)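 Cells from three adrenocortical carcinoma lines were seeded at 500–1,000 cells/well in 5 µL medium in 1,536-well plates. Each library compound was added as 23 nL at 11 concentrations, and after 48 h CellTiter-Glo was added for 15 minutes at room temperature before reading luminescence. Plate-wise normalisation to vehicle and empty-well controls preceded curve fitting. AC50 and area under the curve were calculated only for inhibitory or non-responding curve classes.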

For another experiment, the system named is CU-ACC1. The experiment in a line: area under concentration-response curve (viability) (AUC (a.u.)); higher = less active. The method, boiled down:
as §1

Experiment [2] deals with CU-ACC2. The experiment is described as above. The method, boiled down: as §1
For another experiment, the system named is NCI-H295R. The description is as above. The method, boiled down:
as §1

Regarding `Cc1cccc(-c2[nH]c(C(C)(C)C)nc2-c2ccc3nccnc3c2)n1`, the AC50 viability with CU-ACC2 [1] worked out at 0.263 µM. Besides, the “area under concentration-response curve” value was determined as 293 in the experiment on CU-ACC1 and 331 with CU-ACC2 [2].

`C\C1=C(\[C@@H](OC2=C1C=CC(=C2)O)C3=CC=C(OCCN4CCCCC4)C=C3)C5=CC=C(O)C=C5` returned an AC50 viability in the experiment with CU-ACC2 [1] of 0.295 µM. Further, the “area under concentration-response curve” value in the experiment on CU-ACC1 was found to be 296; in the experiment on CU-ACC2 [2], 333.

In the experiment on CU-ACC2 [1], `CCN(CC)CCOc1ccc(/C(=C(\Cl)c2ccccc2)c2ccccc2)cc1` displayed an AC50 viability of 10.5 µM. Besides, the figures for the “area under concentration-response curve” value in the experiment with CU-ACC2 [2] and with NCI-H295R were 203 and 131, respectively.

With `C[C@H](NC(=O)[C@@H]1C[C@@H](O)CN1C(=O)[C@@H](NC(=O)COCCCOCCNC(=O)C[C@@H]2\N=C(C3=CC=C(Cl)C=C3)/C4=C(SC(=C4C)C)[N]5C(=NN=C25)C)C(C)(C)C)C6=CC=C(C=C6)C7=C(C)N=CS7`, the AC50 viability in the experiment on CU-ACC2 [1] worked out at 8.33 µM. The results for the “area under concentration-response curve” value in the experiment on CU-ACC1 and in the experiment with CU-ACC2 [2] were 474 and 478, respectively.

Take `CNC(=O)c1cccc2cc(Oc3ccnc4cc(OCC5(N)CC5)c(OC)cc34)ccc12`: the AC50 viability with CU-ACC2 [1] turned out to be 1.66 µM. Also, the “area under concentration-response curve” value in the experiment with CU-ACC1 was determined as 356; in the experiment on CU-ACC2 [2] it was 305.

`COc1cc(Nc2cnc(C#N)c(O[C@H](C)CN(C)C)n2)ncc1-c1cnn(C)c1` displayed an AC50 viability in the experiment on CU-ACC2 [1] of 10.5 µM. Also, the entries for the “area under concentration-response curve” value with CU-ACC1 and in the experiment with CU-ACC2 [2] were 312 and 399, respectively.

For the compound `CCN1C(=O)\C(=C/C2=CN=C(NCCC3CCN(C)CC3)N=C12)C4=CC=C(C=C4Cl)C5=CN=CC(=N5)C`, the AC50 viability in the experiment on CU-ACC2 [1] is 2.63 µM. For the same compound, the entries for the “area under concentration-response curve” value with CU-ACC1 and with CU-ACC2 [2] were 645 and 624, respectively.

Consider `Cc1[nH]c(/C=C2\C(=O)Nc3ccc(F)cc32)c(C)c1C(=O)NCCN1CCCC1`, for which the AC50 viability with CU-ACC2 [1] was 14.4 µM. Further, the results for the “area under concentration-response curve” value with CU-ACC1 and in the experiment on CU-ACC2 [2] were 522 and 525, respectively.

`O=C(CCCCCCNC(=O)c1cnc(N(c2ccccc2)c2ccccc2Cl)nc1)NO`: in the experiment with CU-ACC2 [1], the AC50 viability was 11.8 µM. Further, the “area under concentration-response curve” value was determined as 464 with CU-ACC1 and 502 in the experiment with CU-ACC2 [2].

As for `Cc1c(NC(=O)OC[C@@H]2COCCN2)cn2ncnc(Nc3ccc4c(cnn4Cc4cccc(F)c4)c3)c12`, the AC50 viability with CU-ACC2 [1] came out at 18.6 µM. Also, the “area under concentration-response curve” value in the experiment with CU-ACC1 was determined as 393; in the experiment with CU-ACC2 [2], 544.

As to `CONC(=O)c1ccccc1Nc1cc(Nc2cc(C)nn2C(C)C)ncc1Cl`, the AC50 viability with CU-ACC2 [1] turned out to be 16.6 µM. The “area under concentration-response curve” value with CU-ACC1 stood at 455; in the experiment on CU-ACC2 [2] it was 459.

As for `CNCc1ccc(-c2[nH]c3cc(F)cc4c3c2CCNC4=O)cc1`, the AC50 viability in the experiment with CU-ACC2 [1] was found to be 26.3 µM. Moreover, the “area under concentration-response curve” value in the experiment with CU-ACC1 worked out at 416; in the experiment with CU-ACC2 [2], 495.

Take `Cc1cnc(C(=O)NCCc2ccc([S+](=O)([O-])NC(=O)NC3CCCCC3)cc2)cn1`: in the experiment on CU-ACC2 [1], the AC50 viability was 33.2 µM. Besides, the results for the “area under concentration-response curve” value in the experiment with CU-ACC1 and with CU-ACC2 [2] were 355 and 404, respectively.

Compound `CC#CC(=O)N1CC[C@@H](n2c(=O)n(-c3ccc(Oc4ccccc4)cc3)c3c(N)ncnc32)C1` displayed an AC50 viability in the experiment with CU-ACC2 [1] of 13.2 µM. Also, the results for the “area under concentration-response curve” value in the experiment on CU-ACC1 and in the experiment on CU-ACC2 [2] were 425 and 428, respectively.

In the experiment with CU-ACC2 [1], `C=CC[C@@H]1/C=C(\C)C[C@H](C)C[C@H](OC)[C@H]2O[C@@](O)(C(=O)C(=O)N3CCCC[C@H]3C(=O)O[C@H](/C(C)=C/[C@@H]3CC[C@@H](O)[C@H](OC)C3)[C@H](C)[C@@H](O)CC1=O)[C@H](C)C[C@@H]2OC` had an AC50 viability of 18.6 µM. For the same compound, the “area under concentration-response curve” value in the experiment on CU-ACC1 worked out at 383; in the experiment with CU-ACC2 [2], 390.

On to `C[C@]1(O)CC(C1)C2=NC(=C3[N]2C=CN=C3N)C4=CC5=C(C=C4)C=CC(=N5)C6=CC=CC=C6` (stereo not drawn), for which the AC50 viability in the experiment with CU-ACC2 [1] was found to be 18.6 µM. For the same compound, the “area under concentration-response curve” value is 411 in the experiment on CU-ACC2 [2] and 373 in the experiment on NCI-H295R.

`CCOC(=O)c1ccnc(CNCC(=O)N(CC)CCN(C)C)c1`: the AC50 viability in the experiment with CU-ACC2 [1] came out at 0.661 µM. In addition, the “area under concentration-response curve” value in the experiment on CU-ACC1 was determined as 338; in the experiment on CU-ACC2 [2] it was 339.

On to `CN(C)c1ccc(Nc2nc(N)n(C(=O)c3c(F)cccc3F)n2)cc1`, for which the AC50 viability in the experiment with CU-ACC2 [1] is 16.6 µM. For the same compound, the “area under concentration-response curve” value in the experiment with CU-ACC2 [2] came to 553.

In turn, `CC[C@H](CO)Nc1nc(NCc2ccccc2)c2ncn(C(C)C)c2n1` yielded an AC50 viability in the experiment on CU-ACC2 [1] of 20.9 µM. Further, the “area under concentration-response curve” value in the experiment on CU-ACC2 [2] was found to be 582.

The compound `O=C(NCCCNc1nc(Nc2cccc(CN3CCOCC3)c2)ncc1C1CC1)C1CCC1` came in with an AC50 viability in the experiment with CU-ACC2 [1] of 33.2 µM. For the same compound, the “area under concentration-response curve” value in the experiment on CU-ACC2 [2] is 452; in the experiment on NCI-H295R, 220.

The compound `FC1=CC2=C3[N](CCN(CC3=C1)C(=O)N4CCCCC4)C=C2C/5=C(C(=O)NC5=O)\C6=CN=C7C=CC=C[N]67` returned an AC50 viability in the experiment with CU-ACC2 [1] of 18.6 µM. For the same compound, the “area under concentration-response curve” value with CU-ACC2 [2] came to 549.

Turning to `C[C@@H](N)c1ccc(C(=O)Nc2ccnc3[nH]ccc23)cc1`, in the experiment with CU-ACC2 [1], the AC50 viability worked out at 2.63 µM. Further, the results for the “area under concentration-response curve” value with CU-ACC1 and with CU-ACC2 [2] were 349 and 297, respectively.
